From the NIST ThermoML archive (doi:10.1021/je900596d)

Conditions: 353.12 K, Fluid (supercritical or subcritical phases), Vibrating tube method

FC(F)=C(F)C(F)(F)F [hexafluoropropene]
Conditions	mass density [kg/m3]
251.4 kPa	13.222
262.8 kPa	13.844
272.6 kPa	14.383
303.9 kPa	16.11
313 kPa	16.554
322.1 kPa	17.107
330.9 kPa	17.558
340 kPa	18.069
349.1 kPa	18.584
358.7 kPa	19.177
369.1 kPa	19.754
379.1 kPa	20.272
389.1 kPa	20.831
398.8 kPa	21.42
402.9 kPa	21.597
407.6 kPa	21.905
413.1 kPa	22.161
418.2 kPa	22.524
427.2 kPa	23.019
456.1 kPa	24.636
465.8 kPa	25.243
475.9 kPa	25.82
485.6 kPa	26.38
494.8 kPa	26.85
499.7 kPa	27.22
504.9 kPa	27.48
509.8 kPa	27.78
514.2 kPa	28
524.1 kPa	28.5
533.5 kPa	29.18
538.4 kPa	29.45
545.1 kPa	30
567 kPa	31.29
590.2 kPa	32.66
613.6 kPa	34.14
636.8 kPa	35.5
660.1 kPa	36.92
683.4 kPa	38.37
706.6 kPa	39.74
729.7 kPa	41.24
752.5 kPa	42.62
775.3 kPa	44.06
796.9 kPa	45.46
816.7 kPa	46.73
836 kPa	47.99
854.6 kPa	49.09
872.3 kPa	50.27
890.1 kPa	51.44
907.5 kPa	52.57
924.8 kPa	53.65
942.1 kPa	54.86
975.7 kPa	57.1
992.2 kPa	58.29
1023.7 kPa	60.42
1038.9 kPa	61.48
1054.5 kPa	62.56
1070 kPa	63.66
1085.8 kPa	64.72
1101.6 kPa	65.79
1116.8 kPa	66.89
1131.5 kPa	67.98
1146.8 kPa	69
1161.5 kPa	70.08
1205.5 kPa	73.34
1219.6 kPa	74.41
1247.6 kPa	76.44
1261.7 kPa	77.55
1275.7 kPa	78.61
1303.4 kPa	80.62
1330.3 kPa	82.8
1356.9 kPa	84.86
1383.3 kPa	86.96
1408.9 kPa	88.93
1434.2 kPa	91.01
1459.3 kPa	93.02
1483.9 kPa	95.18
1508 kPa	97.12
1531.3 kPa	99.1
1554.6 kPa	101.06
1577.1 kPa	102.97
1599.7 kPa	105.06
1621.5 kPa	106.97
1643.3 kPa	108.91
1664 kPa	110.78
1684.8 kPa	112.72
1705.1 kPa	114.65
1725.3 kPa	116.53
1745.4 kPa	118.38
1764.4 kPa	120.27
1783 kPa	122.06
1801.8 kPa	123.93
1819.8 kPa	125.68
1837.5 kPa	127.52
1854.8 kPa	129.26
1871.7 kPa	131.01
1887.6 kPa	132.69
1901.9 kPa	134.3
1921.8 kPa	136.34
1936 kPa	137.88
1955.9 kPa	140.04
1970.5 kPa	141.59
1990.1 kPa	143.83
2027.5 kPa	148.08
2047 kPa	150.4
2061 kPa	152.1
2079.9 kPa	154.31
2102.5 kPa	157.14
2119.5 kPa	159.22
2136.1 kPa	161.36
2152.9 kPa	163.58
2175.2 kPa	166.51
2194.7 kPa	169.1
2217.5 kPa	172.27
2237.1 kPa	175.05
2258.4 kPa	178.08
2276.1 kPa	180.72
2293.5 kPa	183.23
2310.9 kPa	185.85
2329.3 kPa	188.76
2343.8 kPa	191.1
2361 kPa	193.93
2378.6 kPa	196.85
2393.5 kPa	199.32
2410.2 kPa	202.31
2428.4 kPa	205.51
2442.4 kPa	208.12
2463 kPa	211.98
2479.5 kPa	215.15
2502.3 kPa	219.78
2520.3 kPa	223.6
2540.4 kPa	228.04
2560 kPa	232.39
2575.6 kPa	236.13
